Test results: PubChem BioAssay AID256 (DTP/NCI, 2004)
Values joined by “and” are separate entries in the source; they are usually repeats but may differ in a detail not shown here. Equal values may be shown once. Inconclusive results and toxic doses are left out.

System: CD2F1 mice, L1210 leukemia ip, survival T/C
Assay: NCI In Vivo Anticancer Drug Screen. Data for tumor model L1210 Leukemia (intraperitoneal) in CD2F1 (CDF1) mice
Details: higher = longer survival
In short: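 Tumor-bearing mice (transplanted tumor) were split into treated and vehicle control groups, and the measured endpoint of each treated group was divided by that of its vehicle controls.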

[1] = endpoint: mean survival time, dose: 100.0 mg/kg/injection, schedule: Q01DX001 (ip), vehicle: saline with Tween-80
[2] = endpoint: mean survival time, dose: 100.0 mg/kg/injection, schedule: Q01DX009 (ip), vehicle: saline with Tween-80
[3] = endpoint: mean survival time, dose: 200.0 mg/kg/injection, schedule: Q01DX009 (ip), vehicle: saline with Tween-80
[4] = endpoint: mean survival time, dose: 400.0 mg/kg/injection, schedule: Q01DX009 (ip), vehicle: saline with Tween-80
[5] = endpoint: mean survival time, dose: 100.0 mg/kg/injection, schedule: Q04DX003 (ip), vehicle: saline with Tween-80

COC(=O)c1ccc(OC)c2nc3c(C=O)c(OC)cc(OC)c3nc12
T/C (endpoint: mean survival time, dose: 5.3 mg/kg/injection, schedule: Q01DX009 (ip), vehicle: saline with Tween-80): 94 % of control
T/C (endpoint: mean survival time, dose: 8.0 mg/kg/injection, schedule: Q01DX009 (ip), vehicle: saline with Tween-80): 92 % of control
T/C (endpoint: mean survival time, dose: 12.0 mg/kg/injection, schedule: Q01DX009 (ip), vehicle: saline with Tween-80): 94 % of control
T/C (endpoint: mean survival time, dose: 18.0 mg/kg/injection, schedule: Q01DX009 (ip), vehicle: saline with Tween-80): 97 % of control

O=C(CC(O)(C(F)(F)F)C(F)(F)F)c1cccc(C(F)(F)F)c1
T/C [1]: 90 % of control
T/C (endpoint: mean survival time, dose: 200.0 mg/kg/injection, schedule: Q01DX001 (ip), vehicle: saline with Tween-80): 108 % of control
T/C (endpoint: mean survival time, dose: 400.0 mg/kg/injection, schedule: Q01DX001 (ip), vehicle: saline with Tween-80): 103 % of control

CCOc1nc(N)nc2c1ncn2C1CC(O)C(CO)O1 (stereo unspecified)
T/C (endpoint: mean survival time, dose: 12.5 mg/kg/injection, schedule: Q01DX005 (ip), vehicle: water): 95 % of control
T/C (endpoint: mean survival time, dose: 25.0 mg/kg/injection, schedule: Q01DX005 (ip), vehicle: water): 98 % of control
T/C (endpoint: mean survival time, dose: 50.0 mg/kg/injection, schedule: Q01DX005 (ip), vehicle: water): 102 % of control
T/C (endpoint: mean survival time, dose: 100.0 mg/kg/injection, schedule: Q01DX005 (ip), vehicle: water): 109 % of control
T/C (endpoint: mean survival time, dose: 200.0 mg/kg/injection, schedule: Q01DX005 (ip), vehicle: water): 98 % of control

CCCCCCCCCCCCCCCCCC[Se]CCCCCCCCCCCCCCCCCC
T/C [2]: 89 % of control
T/C [3]: 91 % of control
T/C [4]: 95 % of control

CCOC(=O)CCC1(C(=O)OC)C(=O)CCCCC/C=C/1C(=O)OC (stereo unspecified)
T/C [2]: 101 % of control
T/C [3]: 93 % of control
T/C [4]: 96 % of control

CN(N=O)C(=O)NC1C(CO)OC2OC(C)(C)OC21 (stereo unspecified)
T/C (endpoint: mean survival time, dose: 100.0 mg/kg/injection, schedule: Q04DX003 (ip), vehicle: saline sonified): 94 % of control
T/C (endpoint: mean survival time, dose: 132.0 mg/kg/injection, schedule: Q01DX009 (ip), vehicle: saline): 151 % of control
T/C (endpoint: mean survival time, dose: 200.0 mg/kg/injection, schedule: Q01DX009 (ip), vehicle: saline): 198 % of control
T/C (endpoint: mean survival time, dose: 200.0 mg/kg/injection, schedule: Q04DX003 (ip), vehicle: saline sonified): 100 % of control
T/C (endpoint: mean survival time, dose: 300.0 mg/kg/injection, schedule: Q01DX009 (ip), vehicle: saline): 105 % of control
T/C (endpoint: mean survival time, dose: 400.0 mg/kg/injection, schedule: Q04DX003 (ip), vehicle: saline sonified): 107 % of control

CC(=N\N)/C(C)=N/N
T/C [5]: 105 % of control

NN1C(=O)Cc2ccccc2C1=O
T/C [2]: 103 % of control
T/C [3]: 109 % of control
T/C [4]: 105 % of control

CN(C)CCNc1ccc(CO)c2sc3ccc(O)cc3c(=O)c12
T/C (endpoint: median survival time, dose: 25.0 mg/kg/injection, schedule: Q01DX005 (ip), vehicle: saline with Tween-80): 107 % of control
T/C (endpoint: median survival time, dose: 72.0 mg/kg/injection, schedule: Q01DX005 (ip), vehicle: saline with Tween-80): 155 % of control
T/C (endpoint: median survival time, dose: 100.0 mg/kg/injection, schedule: Q01DX005 (ip), vehicle: saline with Tween-80): 212 % of control
T/C (endpoint: median survival time, dose: 120.0 mg/kg/injection, schedule: Q01DX005 (ip), vehicle: saline with Tween-80): 183 % of control
T/C (endpoint: median survival time, dose: 333.33 mg/kg/injection, schedule: Q01DX005 (ip), vehicle: saline with Tween-80): 112 % of control
T/C (endpoint: median survival time, dose: 400.0 mg/kg/injection, schedule: Q01DX005 (ip), vehicle: saline with Tween-80): 113 % of control and 97 % of control
T/C (endpoint: median survival time, dose: 555.55 mg/kg/injection, schedule: Q01DX005 (ip), vehicle: saline with Tween-80): 111 % of control

O=C1NC(=O)C(c2ccc(Cl)cc2)N1 (stereo unspecified)
T/C [2]: 93 % of control
T/C [3]: 105 % of control
T/C [4]: 104 % of control

COc1cc[c-]cc1.[C-]#[O+].[C-]#[O+].[Fe+6].[c-]1[c-][c-][cH-][c-]1
T/C (endpoint: mean survival time, dose: 50.0 mg/kg/injection, schedule: Q04DX002 (ip), vehicle: saline with Tween-80): 102 % of control
T/C (endpoint: mean survival time, dose: 100.0 mg/kg/injection, schedule: Q04DX002 (ip), vehicle: saline with Tween-80): 102 % of control
T/C (endpoint: mean survival time, dose: 200.0 mg/kg/injection, schedule: Q04DX002 (ip), vehicle: saline with Tween-80): 97 % of control

O=C(O)COc1ccc(NC(=O)COc2ccccc2)cc1
T/C (endpoint: mean survival time, dose: 25.0 mg/kg/injection, schedule: Q01DX001 (ip), vehicle: saline with Tween-80): 100 % of control
T/C (endpoint: mean survival time, dose: 50.0 mg/kg/injection, schedule: Q01DX001 (ip), vehicle: saline with Tween-80): 97 % of control
T/C [1]: 100 % of control

CCCCS(=O)C(Cl)CCC (stereo unspecified)
T/C [5]: 97 % of control
T/C (endpoint: mean survival time, dose: 200.0 mg/kg/injection, schedule: Q04DX003 (ip), vehicle: saline with Tween-80): 100 % of control
